Results: patent US4916122A, “3'-Azido-2',3'-dideoxyuridine anti-retroviral composition” (University of Georgia Research Foundation, Inc., priority 1987, dated 1990)
Converted amounts (≈) assume the structure as drawn. “And” between values parts separate entries of the source, which are not always exact repeats. Identical values can stand only once. Like-named read-outs stand apart in the source and are kept apart here.

Assays:
HIV-1 p24 = assay: Inhibition of HIV replication in human PBM cells, p24 RIA (Table 3)
HIV-1 (strain LAV) = assay: Inhibition of HIV replication in human PBM cells, reverse transcriptase assay (Table 3)
SIV (SMM) = assay: Median effective antiviral concentration against SIV (Table 5); format: cell-based, simian immunodeficiency virus
Source text: (§1) A comparison of the differences in median effective an tiviral concentrations between human, non-human primate, and murine retroviruses is shown in Table 5. […] A further comparison of the activity of several nucleoside analogues, including CS-87, against HIV-1 and SIV in human PBM cells is shown in FIG. 6. The effect of delayed treatment with AZT, CS-87 or CS-91 on the replication of HIV-1 and SIV in human PBM cells is shown in FIGS. 7a, b, and c.

HIV = conditions: in vitro
polio virus-1 = conditions: cited from earlier work
[1] = system: liver enzymes SGPT and SGOT; format: in vivo, rhesus monkey; conditions: rhesus monkeys, FIG. 4
L1210 cells = conditions: in vitro; Lin et al.; Lin and Mancini; cited from earlier work
[2] = Effect on weight of uninfected BALB/c mice (FIG. 3); format: in vivo, mouse; conditions: compared with each other and control
parainfluenza virus-3 = conditions: Colla et al.; cited from earlier work
in vivo = format: in vivo, rhesus monkey; conditions: rhesus monkeys, oral dose of 920 mg
Method: In rhesus monkeys, the pharmocokinetic parameters after an oral dose of […] of CS-87 are as follows: […]

uninfected cells = conditions: tested up to 200 μM
[3] = system: two particular enzymes isolated from L1210 cells; conditions: Lin et al.; cited from earlier work
HIV-1 (Strain HTLV-III) = assay: Antiviral activity against HIV-1 in ATH-8 cells (Table 4)
HIV-1 and SIV = assay: Effect of delayed treatment on replication of HIV-1 and SIV in human PBM cells (FIG. 7); format: cell-based, HIV-1; SIV
Source text: as §1

in vitro = format: cell-based
Source text: The effect of CS-87 on colony formation of human granulocytes-macrophage precursor cells was compared with the effects of AZT and CS-85 in FIG. 1. Vero cells are very fast growing cells, and it can be seen from FIG. 2a that up to a concentration of about 400 micromolar, there is relatively little toxicity to these cells. PBM cells are somewhat more sensitive to CS-87 than the Vero cells, but these cells will still tolerate a concentration of CS-87 of up to about 200 micromolar before significant inhibition is noted (see FIG. 2b).

measles = conditions: Colla et al.; cited from earlier work
Friend (EY-10) = assay: Median effective antiviral concentration against Friend virus (Table 5); format: cell-based, murine retrovirus; conditions: unidentified retrovirus, in Mus musculus
Source text: as §1

HIV p24 and p41 = assay: Inhibition of HIV replication in human PBM cells, western blot analysis (Table 3)
Sindbis virus = conditions: Colla et al.; cited from earlier work
NIH Swiss mice = conditions: 67 days; for Hct / Hgb / MCH / MCHC / MCV / PLT / RBC / RDW / WBC: oral 0.5 mg/ml ad libitum
[4] = Human immunodeficiency virus 1, PBMC, in Homo sapiens, read-out: RIA p24 % Inhibition
[5] = Human immunodeficiency virus 1, PBMC, in Homo sapiens, read-out: RT % Inhibition (corrected)

[N-]=[N+]=N[C@H]1C[C@H](n2ccc(=O)[nH]c2=O)O[C@@H]1CO [CS-87, 3'-azido-2',3'-dideoxyuridine]
RIA p24 (Dupont kit) (HIV-1 p24; 0.1 μM): 21.86 ng/mL | RIA p24 (Dupont kit) (HIV-1 p24; 1 μM): 11.76 ng/mL | RIA p24 (Dupont kit) (HIV-1 p24; 10 μM): 0.65 ng/mL | inhibition at 0.1 µM (HIV-1 p24; [4]): 9.2% | inhibition at 1 µM (HIV-1 p24; [4]): 51.2% | inhibition at 10 µM (HIV-1 p24; [4]): 97.3% | RT: Mean DPM/ml on day 5 (3 day old cells) (HIV-1 (strain LAV); 0.1 μM): 367,934 DPM/ml | RT: Mean DPM/ml on day 5 (3 day old cells) (HIV-1 (strain LAV); 1 μM): 188,878 DPM/ml | RT: Mean DPM/ml on day 5 (3 day old cells) (HIV-1 (strain LAV); 10 μM): 12,904 DPM/ml | inhibition at 0.1 µM (HIV-1 (strain LAV); [5]): 42.3% | inhibition at 1 µM (HIV-1 (strain LAV); [5]): 70.4% | inhibition at 10 µM (HIV-1 (strain LAV); [5]): 98% | effectiveness against SIV (SMM) compared with Friend or mouse ecotropic virus (SIV (SMM); SIV (SMM) vs Friend (EY-10) or Cas-Br-M): much more effective | EC50 (SIV (SMM); Simian immunodeficiency virus): 200 nM | activity compared to d2C in PBM cells (HIV-1): less active | activity against HIV, in words (HIV): selective anti-HIV-1 activity | activity against polio virus-1 (polio virus-1): inactive | toxicity by oral (po) vs intravenous administration [1]: less toxic than intravenous administration | activity against L1210 cells (L1210 cells): inactive | effect on weight of uninfected BALB/c mice [2]: no significant difference | activity against parainfluenza virus-3 (parainfluenza virus-3): inactive | AUC (in vivo; rhesus monkey, in vivo): 113 µg·h/mL | CL/F (in vivo; rhesus monkey, in vivo, read-out: clearance (converted)): 29 mL/min/kg | k el (in vivo; rhesus monkey, in vivo, read-out: elimination rate constant, k (converted)): 0.000397 s⁻¹ | half-life (in vivo; rhesus monkey, in vivo, read-out: elimination t1/2 k (converted)): 28.8 min | Vd/F (in vivo; rhesus monkey, in vivo, read-out: volume of distribution (Vss)): 1.2 L/kg | absorption rate constant (ka) (in vivo): 1.73 h⁻¹ | absorption rate t1/2 (in vivo): 24 min | toxicity to the uninfected cells (uninfected cells): not toxic | inhibitory activity towards two particular enzymes isolated from L1210 cells [3]: only marginal inhibitory activity | activity compared to d2C in ATH-8 cells (HIV-1 (Strain HTLV-III); ATH-8 cells): comparable activity to d2C | MIC (HIV-1 (Strain HTLV-III); Human immunodeficiency virus 1, 240 h, read-out: ATH-8 (MIC)): 0.4 µM (≈ 0.101 µg/mL) | effect of delayed treatment on replication of HIV-1 and SIV (HIV-1 and SIV): time of administration is critical to the effectiveness of the treatment | MNTC (in vitro; human, PBM cells, FIG. 2b, read-out: concentration tolerated by PBM cells before significant inhibition is noted): ~200 µM | MNTC (in vitro; monkey, Vero cells, FIG. 2a, read-out: concentration up to which there is relatively little toxicity to Vero cells): ~400 µM | activity against measles (measles): inactive | EC50 (Friend (EY-10)): > 10000 nM | Western blot p24 (band intensity) (HIV p24 and p41; 0.1 μM): 3+ | Western blot p41 (band intensity) (HIV p24 and p41; 0.1 μM): 2+ | Western blot p24 (band intensity) (HIV p24 and p41; 1 μM): 2+ | Western blot p41 (band intensity) (HIV p24 and p41; 1 μM): 1+ | Western blot p24 (band intensity) (HIV p24 and p41; 10 μM): 0 | Western blot p41 (band intensity) (HIV p24 and p41; 10 μM): 0 | activity against Sindbis virus (Sindbis virus): inactive | Hct (NIH Swiss mice; Mean of group): 42.4% | Hgb (NIH Swiss mice; Mean of group): 14.0 g/dL | MCH (NIH Swiss mice; Mean of group): 16.7 pg | MCHC (NIH Swiss mice; Mean of group): 33.1 g/dL | MCV (NIH Swiss mice; Mean of group): 50.4 fL | PLT (NIH Swiss mice; Mean of group): 1.3 × 10^6 | RBC (NIH Swiss mice; Mean of group): 8.4 × 10^6 | RDW (NIH Swiss mice; Mean of group): 26.0% | WBC (NIH Swiss mice; Mean of group): 8.0 × 10^3 | toxicity compared to AZT (RBC and MCV values) (NIH Swiss mice; NIH Swiss mice, oral 0.5 mg/ml): significantly less toxicity | Hct (NIH Swiss mice; individual mouse): 37.2% and 44.4% and 42.3% and 45.7% | Hgb (NIH Swiss mice; individual mouse): 12.9 g/dL and 14.1 g/dL and 14.2 g/dL and 14.8 g/dL | MCH (NIH Swiss mice; individual mouse): 16.9 pg and 16.4 pg and 16.6 pg and 16.8 pg | MCHC (NIH Swiss mice; individual mouse): 34.6 g/dL and 31.8 g/dL and 33.5 g/dL and 32.4 g/dL | MCV (NIH Swiss mice; individual mouse): 48.8 fL and 51.7 fL and 49.4 fL and 51.8 fL | PLT (NIH Swiss mice; individual mouse): 1.158 × 10^6 and 1.35 × 10^6 and 1.305 × 10^6 and 1.361 × 10^6 | RBC (NIH Swiss mice; individual mouse): 7.6 × 10^6 and 8.6 × 10^6 and 8.8 × 10^6 | RDW (NIH Swiss mice; individual mouse): 34.3% and 16.8% and 37.7% and 15.3% | WBC (NIH Swiss mice; individual mouse): 2.6 × 10^3 and 8.9 × 10^3 and 7.9 × 10^3 and 12.6 × 10^3
